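GI50 marks 50% less growth. TGI denotes the concentration required for complete inhibition of growth.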
Legend:
Test in all cases: DTP human tumour cell line panel, 384-well format
786-0 renal = system: 786-0 renal
A498 renal = system: A498 renal
A549 NSCLC = system: A549 NSCLC
ACHN renal = system: ACHN renal
BT-549 breast = system: BT-549 breast
CAKI-1 renal = system: CAKI-1 renal
CCRF-CEM leukemia = system: CCRF-CEM leukemia
COLO 205 colon = system: COLO 205 colon
DU-145 prostate = system: DU-145 prostate
EKVX NSCLC = system: EKVX NSCLC
HCC-2998 colon = system: HCC-2998 colon
HCT-116 colon = system: HCT-116 colon
HCT-15 colon = system: HCT-15 colon
HL-60(TB) leukemia = system: HL-60(TB) leukemia
HOP-62 NSCLC = system: HOP-62 NSCLC
HOP-92 NSCLC = system: HOP-92 NSCLC
HS 578T breast = system: HS 578T breast
HT29 colon = system: HT29 colon
IGROV1 ovarian = system: IGROV1 ovarian
K-562 leukemia = system: K-562 leukemia
KM12 colon = system: KM12 colon
LOX IMVI melanoma = system: LOX IMVI melanoma
M14 melanoma = system: M14 melanoma
MALME-3M melanoma = system: MALME-3M melanoma
MCF7 breast = system: MCF7 breast
MDA-MB-231 breast = system: MDA-MB-231 breast
MDA-MB-435 melanoma = system: MDA-MB-435 melanoma
MDA-MB-468 breast = system: MDA-MB-468 breast
MOLT-4 leukemia = system: MOLT-4 leukemia
NCI-H226 lung = system: NCI-H226 lung
NCI-H23 lung = system: NCI-H23 lung
NCI-H322M lung = system: NCI-H322M lung
NCI-H460 NSCLC = system: NCI-H460 NSCLC
NCI-H522 lung = system: NCI-H522 lung
NCI/ADR-RES ovarian = system: NCI/ADR-RES ovarian
OVCAR-3 ovarian = system: OVCAR-3 ovarian
OVCAR-4 ovarian = system: OVCAR-4 ovarian
OVCAR-5 ovarian = system: OVCAR-5 ovarian
OVCAR-8 ovarian = system: OVCAR-8 ovarian
PC-3 prostate = system: PC-3 prostate
RPMI-8226 leukemia = system: RPMI-8226 leukemia
RXF 393 renal = system: RXF 393 renal
SF-268 CNS = system: SF-268 CNS
SF-295 CNS = system: SF-295 CNS
SF-539 CNS = system: SF-539 CNS
SK-MEL-28 melanoma = system: SK-MEL-28 melanoma
SK-MEL-5 melanoma = system: SK-MEL-5 melanoma
SK-OV-3 ovarian = system: SK-OV-3 ovarian
SN12C renal = system: SN12C renal
SNB-19 CNS = system: SNB-19 CNS
SNB-75 CNS = system: SNB-75 CNS
SW-620 colon = system: SW-620 colon
T-47D breast = system: T-47D breast
TK-10 renal = system: TK-10 renal
U251 glioblastoma = system: U251 glioblastoma
UACC-257 melanoma = system: UACC-257 melanoma
UACC-62 melanoma = system: UACC-62 melanoma
UO-31 renal = system: UO-31 renal

## Cc1ccc(NC(=O)c2ccnc(C(F)(F)F)c2)cc1-c1cc(OCCO)nc(N2CCOCC2)c1
786-0 renal
  GI50: 997 nM
  TGI: 11700 nM
A498 renal
  GI50: 1200 nM
  TGI: 7920 nM
A549 NSCLC
  GI50: 591 nM
  TGI: 14500 nM
ACHN renal
  GI50: 787 nM
  TGI: 12300 nM
BT-549 breast
  GI50: 1210 nM
  TGI: 6680 nM
CAKI-1 renal
  GI50: 847 nM
  TGI: 18100 nM
CCRF-CEM leukemia
  GI50: 385 nM
  TGI: 1460 nM
COLO 205 colon
  GI50: 214 nM
  TGI: 1120 nM
DU-145 prostate
  GI50: 2420 nM
  TGI: > 100000 nM
EKVX NSCLC
  GI50: 2850 nM
  TGI: 14800 nM
HCC-2998 colon
  GI50: 224 nM
  TGI: 1270 nM
HCT-116 colon
  GI50: 243 nM
  TGI: 2480 nM
HCT-15 colon
  GI50: 339 nM
  TGI: 9050 nM
HL-60(TB) leukemia
  GI50: 68 nM
  TGI: 1090 nM
HOP-62 NSCLC
  GI50: 1230 nM
  TGI: 11500 nM
HOP-92 NSCLC
  GI50: 928 nM
  TGI: 3490 nM
HS 578T breast
  GI50: 1190 nM
  TGI: 3650 nM
HT29 colon
  GI50: 306 nM
  TGI: 1990 nM
IGROV1 ovarian
  GI50: 697 nM
  TGI: 11400 nM
K-562 leukemia
  GI50: 428 nM
  TGI: 1720 nM
KM12 colon
  GI50: 523 nM
  TGI: 5770 nM
LOX IMVI melanoma
  GI50: 171 nM
  TGI: 1170 nM
M14 melanoma
  GI50: 129 nM
  TGI: 603 nM
MALME-3M melanoma
  GI50: 85.6 nM
  TGI: 316 nM
MCF7 breast
  GI50: 951 nM
  TGI: 10900 nM
MDA-MB-231 breast
  GI50: 37.3 nM
  TGI: 12100 nM
MDA-MB-435 melanoma
  GI50: 289 nM
  TGI: 922 nM
MDA-MB-468 breast
  GI50: 359 nM
  TGI: 1270 nM
MOLT-4 leukemia
  GI50: 172 nM
  TGI: 317 nM
NCI-H226 lung
  GI50: 577 nM
  TGI: 6560 nM
NCI-H23 lung
  GI50: 79.2 nM
  TGI: 1100 nM
NCI-H322M lung
  GI50: 2010 nM
  TGI: 16200 nM
NCI-H460 NSCLC
  GI50: 379 nM
  TGI: 10600 nM
NCI-H522 lung
  GI50: 274 nM
  TGI: 755 nM
NCI/ADR-RES ovarian
  GI50: 2190 nM
  TGI: 5240 nM
OVCAR-3 ovarian
  GI50: 461 nM
  TGI: 1790 nM
OVCAR-4 ovarian
  GI50: 3870 nM
  TGI: 20000 nM
OVCAR-5 ovarian
  GI50: 675 nM
  TGI: 8880 nM
OVCAR-8 ovarian
  GI50: 777 nM
  TGI: 4600 nM
PC-3 prostate
  GI50: 750 nM
  TGI: 14200 nM
RPMI-8226 leukemia
  GI50: 344 nM
  TGI: 974 nM
RXF 393 renal
  GI50: 342 nM
  TGI: 1960 nM
SF-268 CNS
  GI50: 211 nM
  TGI: 532 nM
SF-295 CNS
  GI50: 569 nM
  TGI: 13900 nM
SF-539 CNS
  GI50: 927 nM
  TGI: 3750 nM
SK-MEL-28 melanoma
  GI50: 253 nM
  TGI: 758 nM
SK-MEL-5 melanoma
  GI50: 155 nM
  TGI: 437 nM
SK-OV-3 ovarian
  GI50: 1780 nM
  TGI: 17800 nM
SN12C renal
  GI50: 1180 nM
  TGI: 10400 nM
SNB-19 CNS
  GI50: 2380 nM
  TGI: 18000 nM
SNB-75 CNS
  GI50: 1340 nM
  TGI: 9720 nM
SW-620 colon
  GI50: 282 nM
  TGI: 10500 nM
T-47D breast
  GI50: 754 nM
  TGI: 5920 nM
TK-10 renal
  GI50: 1030 nM
  TGI: 87600 nM
U251 glioblastoma
  GI50: 595 nM
  TGI: 5430 nM
UACC-257 melanoma
  GI50: 272 nM
  TGI: 1310 nM
UACC-62 melanoma
  GI50: 152 nM
  TGI: 526 nM
UO-31 renal
  GI50: 1120 nM
  TGI: 3410 nM

— PubChem BioAssay (NCI)
